{"source": "patent US10076539B2", "about": "(priority 2016, dated 2018)", "key": {"[1]": {"details": "cited from earlier work; for solubility: 37° C."}, "[2]": {"test_system": "gout attack", "excerpt": "2. Preparation of Embrocation • Take KOH16.8 g, dissolve in 1 liters of distilled water, and get a concentration of 0.3 mol/L.\nThey dripped a cotton swab into the embrocation (0.1 mol/L) prepared by themself and embrocated on the attack position."}, "[3]": {"test_system": "blood uric acid", "details": "applicant", "description": "On December 3, they took a footbath in 45° C. soaking solution (0.01 mol/L) for an hour, and then went to test at Chaohu Hospital of Anhui Medical University."}, "[4]": {"test_system": "blood uric acid", "details": "applicant", "description": "2. Preparation of Oral Liquid • Take KOH0.12 g, dissolve in 1 liters of distilled water, and get a concentration of 0.0021 mol/L. Take orally for 50 ml per time and one time per day.\nSo they began to take oral use tests from January 2016. […] The oral concentration (mol/L) they had tried includes 0.001, 0.0018, 0.0021, 0.0025, 0.003, 0.005 and 0.008 in turn.", "remark": "listed apart in the source"}, "[5]": {"test_system": "gout", "description": "The solution can be also heated to 40-48° C. and then used for footbath. For acute gout attack, if the attack position is easy to soak, such as ankles, toe joints, hands and wrist joints, the solution can also be used to soak such positions. The solution should be embrocated on the attack positions if such positions are not convenient to soak, such as knee joints and elbow joints. […] Drip a cotton swab in the embrocation and embrocate on the attack positions, or drip a dressing in the embrocation and apply on the attack positions. It is very inconvenient to undress when applying topical drug in cold season, then oral drug is an option. […] Have 50 ml of the liquid before meals. For the sufferers of high blood uric acid and acute, intermittent and chronic gout, the embrocation, soak solution and oral liquid can be used separately or concurrently at the same time."}, "[6]": {"test_system": "high uric acid and gout", "details": "water injection for intravenous drip, high uric acid and gout sufferers"}, "[7]": {"details": "cited from earlier work"}, "[8]": {"details": "December 3, one footbath in 45° C. soaking solution (0.01 mol/L) for an hour"}, "[9]": {"details": "baseline, day after eating two chicken livers"}}}
{"molecule": "O=c1[nH]c(=O)c2[nH]c(=O)[nH]c2[nH]1", "note": "[potassium urate]", "values": [{"measurement": "solubility compared with uric acid and sodium urate", "setting": "[1]", "result": "much higher than uric acid and sodium urate"}]}
{"molecule": "[K+].[OH-]", "note": "[KOH, potassium hydroxide]", "values": [{"measurement": "time until pain was relieved and foot could touch the ground", "setting": "[2]; embrocation 0.1 mol/L on first metatarsophalangeal joint, applicant, May 2008", "result": "about ten"}, {"measurement": "time until gout symptoms disappeared", "setting": "[2]; embrocation 0.1 mol/L, 2-3 times per day, applicant", "result": "three"}, {"measurement": "effect on swelling and soreness (forerunner of gout), prevention of onset", "setting": "[2]; embrocation, molar concentration of KOH solution 0.1, 0.2, 0.3 and 0.4, 2009-2013, applicant", "result": "all were effective"}, {"measurement": "blood uric acid after footbath", "setting": "[3]; [8]", "result": 486, "unit": "μmol/LL"}, {"measurement": "urine uric acid after footbath", "setting": "[3]; [8]", "result": 6.59, "unit": "mmol/L"}, {"measurement": "blood uric acid after footbath once a day", "setting": "[3]; December 10, footbath once a day since December 3, soaking solution 0.01 mol/L", "result": 389, "unit": "µmol/L"}, {"measurement": "drop of blood uric acid", "setting": "[3]; December 10 versus 495 μmol/L before footbath", "result": 21, "unit": "%"}, {"measurement": "blood uric acid before footbath", "setting": "[3]; [9]", "result": 495, "unit": "µmol/L"}, {"measurement": "urine uric acid before footbath", "setting": "[3]; [9]", "result": 6.3, "unit": "mmol/L"}, {"measurement": "blood uric acid after oral use", "setting": "[4]; April 2016, after oral KOH solution 23 times since January 2016", "result": 351, "unit": "µmol/L"}, {"measurement": "discomfort / taste of oral liquid", "setting": "[4]; oral liquid 0.001 mol/L-0.005 mol/L", "result": "brought no discomfort to the body"}, {"measurement": "consecutive days of application until gout symptoms completely disappear", "setting": "[5]; footbath, oral or embrocation", "result": "2 to 3", "unit": "days"}, {"measurement": "time to relief of symptoms (pain and swelling during gout attack)", "setting": "[5]; footbath, oral or embrocation", "result": "ten"}, {"measurement": "corrosion of the skin", "setting": "[5]; low concentration KOH", "result": "will not corrode the skin"}, {"measurement": "side effects", "setting": "[5]; low concentration KOH", "result": "no side effects"}, {"measurement": "anticipated effect of intravenous drip", "setting": "[6]", "result": "immediate effect"}]}
{"molecule": "O=c1[nH]c(=O)c2[nH]c(=O)[nH]c2[nH]1", "note": "[uric acid, 2,6,8-Trihydroxypurine]", "values": [{"measurement": "dissociation constant (PKa), the 3rd nitrogen dissociation", "setting": "[7]", "result": 10.3}, {"measurement": "solubility", "setting": "[1]", "result": 0.5, "unit": "mmol/L"}]}
{"molecule": "O=c1[nH]c(=O)c2[nH]c([O-])nc2[nH]1.[Na+]", "note": "[sodium urate]", "values": [{"measurement": "solubility", "setting": "[1]", "result": 8.0, "unit": "mmol/L"}]}
